Source: article PMC8190080, “Tanshinones induce tumor cell apoptosis via directly targeting FHIT” (Scientific Reports, 2021)
One block for each molecule: values may come before it.

Experiments:
WT HCT116 cells = experiment: Apoptosis detection by flow cytometry (Annexin V/PI), WT HCT116 cells; type: cell-based, human
Procedure: (§1) HCT116 cells treated with indicated compounds were digested with 0.25% trypsin (Gibco). The cells were harvested by centrifugation at 1000 rpm for 5 min. The trypsinization time should not be too long to prevent false positives. The cells were washed twice with pre-cooled PBS. The cells were resuspended with 1 × annexin-binding buffer and the cell density was adjusted to ~ 1 × 10^6 cells/ml. Then 5µL Alexa Fluor 488 annexin V and 1 µL 100 µg/mL PI working solution (V13241, Invitrogen) was added to each 100 µL cell suspension. The cells were incubated at room temperature in the dark for 15 min. After the incubation, 400 µL 1 × annexin-binding buffer was added to the cells, mixed gently, and kept the samples on ice. Analyze the stained cells by flow cytometry as soon as possible. The V-FITC positive and PI negative cells were recorded as apoptotic cells.

FHIT KO HCT116 cells = experiment: Apoptosis detection by flow cytometry (Annexin V/PI), FHIT KO HCT116 cells; type: cell-based, human; conditions: for apoptosis: KO cells
Description: FHIT gene was deleted in HCT116 cells by CRISPR/Cas9 genome editing. A plasmid pL- CRISPR.EFS.GFP (#57,818, Addgene) encoding both the Cas9 protein and the sgRNA was used. The Cas9 sequence is coupled to a P2A site and EGFP. Expression of the Cas9 protein results in simultaneous expression of EGFP, allowing for the selection of positively transfected cells. Two sgRNA toward exon5 and exon6 of the FHIT gene, respectively, were designed by using the optimized CRISPR design online tool (http://crispr.cos.uni-heidelberg.de). The primers sequences of the sgRNA used were shown as below: sgRNA1 for exon5 forward, 5’[…]3’, reverse, 5’[…] GGACAC3’; sgRNA2 for exon6 forward, 5’[…]3’, reverse, 5’[…]3’. Plasmids containing the right insertion were then sequenced by Sangon Biotech Company (Shanghai, China). The two CRISPR/Cas9 plasmids were co-transfected into HCT116 cells as 1:1 using Lipofectamine3000 (Invitrogen). After 48 h, EGFP positive single cell was sorted into 96-well plates and the plates were left in the incubator for 7–14 days or until small colonies could be seen by the naked eye. Genomic DNA of each well was extracted by QuickExtract DNA Extraction Solution (Epicenter, Madison, WI) to do PCR identification. And the PCR products were then Sanger-sequenced to identify clones that would result in frameshifts and truncated protein products. Sequence alignment and genomic PCR primers were shown as below: forward, 5′[…]3′, revers, 5′[…]3′.
as §1, with “The cells were incubated at room temperature in the dark for 15 min. After the incubation, 400 µL 1 × annexin-binding buffer was added to the cells, mixed gently, and kept the samples on ice. Analyze the stained cells by flow cytometry as soon as possible.” left out

FHIT [1] = target: T1, FHIT (Homo sapiens, UniProt P49789); experiment: MST assay of the binding between tanshinone compounds and FHIT; conditions: Fig. 4B, FHIT preparation not stated
T1 construct: GST (N, cleaved yes); made in house; host or cells: E. coli BL21 (DE3)
T1 sequence (P49789 whole entry): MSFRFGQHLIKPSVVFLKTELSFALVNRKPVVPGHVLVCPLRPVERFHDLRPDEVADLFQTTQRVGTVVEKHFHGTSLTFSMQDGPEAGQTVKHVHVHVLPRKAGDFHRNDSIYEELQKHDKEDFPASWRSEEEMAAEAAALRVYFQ
Procedure: Ten million 293 cells overexpressing GFP-tagged FHIT or free GFP were lysed in 0.5 mL M-PER mammalian protein extraction reagent (Thermo Fisher Scientific). Cell lysates were diluted in PBS buffer to a final concentration at which the fluorescent signals of the GFP proteins were suitable for the detection of the Monolith NT.115 instrument (NanoTemper Technologies). A single point screening assay was developed against GFP-FHIT protein to find potential binding molecules from compound libraries (L1021,APExBIO). For binding affinity detection, a 10µL protein sample was mixed with 10µL ligand at various concentrations as indicated. And the purified proteins were labeled by Red- NHS kit in accordance with the manufacturer’s protocol (MO-L011, NanoTemper Technologies). Then the mixture solutions were loaded into NT.115 standard coated capillaries or premium coated capillaries (NanoTemper Technologies), and the MST measurements were performed at 25 °C. The fluorescence signal during the thermophoresis was monitored and the change in fluorescence was analyzed by software. The Kd was calculated by fitting a standard binding curve to the series diluted ligands. And data were analyzed by GraphPad Prism 7.0.

FHIT [2] = target: T1, FHIT; experiment: Fluorescent thin layer enzyme assay with ApppBODIPY (FHIT); type: biochemical; conditions: 10 nM Fhit, 5 µM ApppBODIPY, TLC; read-out: IC50, FHIT hydrolase activity (TLC assay)
Procedure: Fluorescent substrates ApppBODIPY at 5 µM were incubated with purified Fhit protein 10 nM in reactions at 25 °C containing 20 mM Tris–HCl, pH7.5, 150 mM NaCl, and 5 mM MgCl2. Competitive compounds, when indicated at series concentrations, were mixed with a fluorescent substrate. Reaction samples (0.6µL) were spotted on silica TLC plates (MERCK) at 60–120 s intervals. Plates were air-dried and developed in 2-propanol:NH4OH:1,4-dioxane: H2O (50:35:8:7) as reported before. Developed plates were imaged by fluorescein blot (ChemiDoc, Bio-Rad).

HCT116 cells [3] = experiment: CCK-8 assay for cell inhibitory rate; type: cell-based, human; conditions: WT HCT116 cells, 2 µM
Procedure: The CCK-8 (Cell-Counting Kit-8) assay was used to detect the cells’inhibitory rate following the manufacturer’s protocol (APExBIO). Cells were seeded into 96-well plates at the density of 4 × 10^3(cells/well) overnight at 37 °C. After that, the culture medium was removed and the cells were treated with different concentrations of TSA (0, 1, 2, 5, 10 µM) or STS (0, 10, 25, 50, 100 µM) for 24 h, 48 h, 72 h respectively. Then 10 μL CCK-8 reagent was added into each well and incubated for another 2 h, OD450 was measured by a microplate reader (spark, TECAN).

HCT116 cells [4] = experiment: Colony formation assay; type: cell-based, human; conditions: 1 µM, 14 days
Procedure: ENPP1 hydrolase activity detection assay
ENPP1 protein (4ng/µl) was mixed with series diluted compounds as indicated in assay buffer (50mM Tris-HCl, 2mM CaCl2, 2mM MgCl2, pH9.0) in a final DMSO concentration of 1% in a total volume of 20μL. The mixtures were incubated for 30min at 25°C, then 4µM Ap3A was added. After incubation at 25°C for 10min, ENPP1 should be inactivated at 85°C for 5min.
Then the production of ADP in the reaction system was detected by ADP-Glo reagent (V6930, Promega) according to the manufacturer’s protocol in 384-well. Luminescence was read by spark (TECAN), an integration time of 1 second per well. And the data were analyzed by […]
Fluorescent thin layer enzyme assay for ENPP1
Small molecules, when indicated at series concentrations, were mixed with 2.5µM the fluorescent substrate ApppBODIPY. Then, 10nM purified ENPP1 protein was added to the reaction system at 25°C containing 50mM Tris-HCl pH9.0, 2mM CaCl2, 2mM MgCl2. Reaction samples (0.6µL) were spotted on silica TLC plates (Merck) at 60–120s intervals. Plates were air-dried and developed in 2-propanol:NH4OH:1,4-dioxane: H2O (50:35:8:7) as reported before. Developed plates were imaged by fluorescein blot (ChemiDoc, Bio-rad).
Colony formation assay was performed as described before. Briefly, ~200/well single cells were planted into 6-well plate. […]

FHIT [5] = target: T1, FHIT; experiment: FHIT hydrolase activity detection assay (Ap3A, ADP-Glo); type: biochemical; conditions: 5 nM FHIT, 500 nM Ap3A, ADP production by ADP-Glo
Procedure: 5 nM FHIT protein was mixed with series diluted compounds as indicated in assay buffer (20 mM Tris–HCl, 2 mM DTT, 5 mM MgCl2, pH7.5) in a final DMSO concentration of 1% in a total volume of 20 μL. The mixtures were incubated for 30 min at 25 °C, then 500 nM Ap3A was added. After incubation at 25 °C for 5 min, the production of ADP in the reaction system was detected by ADP-Glo reagent (V6930, Promega) according to the manufacturer’s protocol in 384-well. Luminescence was read by spark (TECAN), an integration time of 1 s per well. And the data were analyzed by GraphPad Prism 7.0.

FHIT (H96N) = target: T2, FHIT (H96N) (Homo sapiens, UniProt P49789, H96N); experiment: Fluorescence polarization assay, FHIT H96N-ApppBODIPY binding inhibition; conditions: 5 µM FHIT (H96N), 1 µM ApppBODIPY
T2 construct: GST (N, cleaved yes); made in house; host or cells: E. coli BL21 (DE3)
T2 sequence (P49789 whole entry H96N): as the sequence (P49789 whole entry) above, with H96N counted along it
Procedure: The binding of FHIT (H96N) to fluorescein-labeled substrates ApppBODIPY was analyzed by fluorescence polarization assay in 384-well format for dose–response curve studies using spark instrument (TECAN) according to the protocol reported before. And 5 µM FHIT (H96N) protein was incubated with 1 µM fluorescein-labeled substrates in buffer A (25 mM Tris–HCl, pH 7.5, 5 mM MgCl2 and 2 mM DTT) with series diluted inhibitors as indicated. Each sample was allowed to equilibrate in the solution for 30 min. After 30 min, the steady-state fluorescence anisotropy (mP) was measured. A second reading was taken after 10 min, to ensure that the mixture was well-equilibrated and stable. Less than 5% change was observed between 30 and 40 min measurements. The IC50 value was determined by fitting the binding curves using GraphPad Prism 7.0.

Kd (FHIT [1]): 0.466 ± 0.06 µM | IC50 (FHIT [2]): 4 to 6 µM
SMILES: Cc1coc2c1C(=O)C(=O)c1c-2ccc2c(C)cccc12 [TanI, tanshinone I]
apoptosis (WT HCT116 cells; 10 µM): 31.66% | apoptosis (FHIT KO HCT116 cells; 10 µM): 12.7%

IC50 (FHIT [5]): 0.26 ± 0.08 µM | IC50 (FHIT (H96N)): 2.6 ± 0.044 µM
SMILES: Cc1ccc(C(=O)Nc2ccc(S(=O)(=O)O)c3cc(S(=O)(=O)O)cc(S(=O)(=O)O)c23)cc1NC(=O)c1cccc(NC(=O)Nc2cccc(C(=O)Nc3cc(C(=O)Nc4ccc(S(=O)(=O)O)c5cc(S(=O)(=O)O)cc(S(=O)(=O)O)c45)ccc3C)c2)c1 [suramin]

Second part, the molecule before the results:

SMILES: CC[C@@]1(O)C(=O)OCc2c1cc1n(c2=O)Cc2cc3ccccc3nc2-1 [CPT, camptothecin]
apoptosis (WT HCT116 cells; 1 µM): 24.9% | apoptosis (FHIT KO HCT116 cells; 1 µM): 5.3%

SMILES: C[C@H]1COC2=C1C(=O)C(=O)c1c2ccc2c1CCCC2(C)C [CST, Cryptotanshinone]
Kd (FHIT [1]): 0.123 ± 0.0317 µM | IC50 (FHIT [2]): 4 to 6 µM

SMILES: Cc1coc2c1C(=O)C(=O)c1c-2ccc2c1CCCC2(C)C [TSA, Tanshinone IIA]
Kd (FHIT [1]): 0.112 ± 0.0273 µM | IC50 (FHIT [2]): 4 to 6 µM | growth of HCT116 cells (CCK8) (HCT116 cells [3]): significantly inhibits the growth | colony formation of HCT116 cells (HCT116 cells [4]): clearly abolished the colony formation | apoptosis rate (WT HCT116 cells; 5 µM, 24 h): 13.5% | apoptosis rate (FHIT KO HCT116 cells; FHIT KO cells, 5 µM, 24 h): 4.9%
